Literature values, collected in US10595479B2, “Induced mutagenesis” (Purdue Research Foundation, priority 2014, dated 2020).

Test system: maize
Conditions: pollen EMS protocol in maize, tested molecularly

For CCOS(C)(=O)=O [EMS, ethyl methanesulfonate], the density of mutations is given as “about 2 mutations per Mb of DNA”.
